Source: patent publication US20110294794A1, “TREATMENT OF PROTEINOPATHIES USING A FARNESYL TRANSFERASE INHIBITOR” (Link Medicine Corporation, priority 2008, published 2011)
Entries after “also recorded” stand apart in the source; their conditions may differ.

What was measured:
Aβ = Aβ pathology in APP/PS1 transgenic mice (6E10, Thioflavin-S, ELISA); type: in vivo, mouse; settings: 0.9 mg/kg once every 24 hr, two months
Text: Immunohistochemistry and quantification of stained cells: For evaluation of α-synuclein immunoreactivity (IR), 5 sagittal cryo-cut sections (10 μm slice thickness) from five different layers were used for counting of IR cells in the cortex and hippocampus. Brain sections were stained with a monoclonal human α-synuclein specific antibody (Alexis®; Cat# 804-258-L001; dilution 1:5), followed by a secondary Ab Cy 2-Goat Anti-Rat (Jackson ImmunoResearch®; dilution 1:200). IR positive cells were quantified using specialized image analysis software (Image Pro Plus, version 4.5.1.29). […] Images were evaluated with ImageProPlus (version 6.2) image analysis software. For APP/PS1 transgenic animals sagittal hemisections (40 μm) were collected and processed for Aβ immunohistochemistry using an 6E10 antibody, Thioflavin-S staining Primary antibodies were detected by the ABC method.
ELISA quantification of α-Synuclein in the α-Synuclein transgenic animals: Brain homogenate was centrifuged and the supernatant saved as fraction F1. […] Raw absorbance (405 nm) was then normalized to the total protein concentration of each sample. […] To quantify the amount of human Aβ-40 and Aβ-42, ELISA kits were used (The Genetics Company, Zurich, Switzerland). […]

Atg1 = experiment: mRNA levels of autophagy-related genes (Atg1) in SH-SY5Y cells; type: cell-based, human; settings: 100 nM (FIG. 8d)
Description: Quantitative real-time PCR: Gene expression profiles were done by qPCR on series of known autophagy genes. RNA was extracted with Tri-reagent (Sigma), and cDNAs generated using iScript (Biorad). qPCR analysis was carried out in a 96 well plate using an iCycler (BioRad, Hercules, Calif.), and iQ SYBR Green Supermix (Biorad) according to the manufacturer's specifications.
(§1) The mechanism of autophagy stimulation by LNK-754-TS appears distinct from that of the drug rapamycin. Rapamycin is a well-characterized autophagy stimulator that acts through inhibition of mTOR, a kinase involved in nutrient signaling and regulation of cell growth and survival. […] To further contrast the mechanism of autophagy stimulation by LNK-754-TS to that of rapamycin, a collection of mRNA transcripts of autophagy proteins were measured (FIG. 8d). Selected mRNAs from untreated SH-SY5Y cells were compared to mRNAs from cells treated with LNK-754-TS (100 nM), tipifarnib (100 nM), or rapamycin (1 μM).

[1] = Pharmacokinetics of LNK-754-TS in mice, oral administration; type: in vivo, mouse; settings: 9 mg/kg, 20% beta-cyclodextrin
Text: In the experimental data represented in Table 2A, a different method of drug delivery is used (oral) than in the experiment represented in FIG. 3. The best way to compare the relative coverage of the two delivery methods (oral and continuous infusion) is by comparing area-under-the-curve (AUC) values. We can compare the calculated AUC values for the continuous infusion oncology study presented in FIG. 3 and the AUC values associated with the synuclein model doses in the table. […] The AUCs of orally dosed LNK-754-TS at 0.9 mg/kg and at 0.09 mg/kg QD are 34.6 and […], respectively.
The pharmacokinetic profiles of LNK-754-TS and Zarnestra® were analyzed using methods known in the art. The results are shown in FIGS. 13-14 and the tables below.

[2] = tested on: 3T3 H-ras (61L) xenograft; settings: BID for 10 days; cited from earlier work
LC3 = experiment: Punctate LC3 immunostaining in SH-SY5Y cells; type: cell-based, human; settings: 100 nM (FIG. 8b)
Description: Cell culture and immunocytochemistry: SH-SY5Y cells were grown in DMEM medium supplemented with 10% FBS and 1% pen/strep at 37° C. and 5% CO2. Cells were differentiated with 10 μM retinoic acid for 48 hr, then treated with the either rapamycin (100 nM or 1 μM) or with 100 nM of either LNK-754-TS or Tipifarnib for 48-72 hr. Cells were then fixed with 4% paraformaldehyde and stained for LC3 (Novus biological, NB100-2331, dilution 1:800) followed by secondary Alexa-564 anti-Rabbit (A-11011).
Autophagy was measured in a neuroblastoma cell culture system by three distinct approaches: quantitation of autophagy-related mRNA's, immunofluorescence microscopy of autophagosomes, and biochemical detection of the microtubule-associated protein 1 light chain 3 (LC3) a key protein that is required for autophagosome formation. Differentiated human neuroblastoma cells (SH-SY5Y) were treated for 72 hr with LNK-754-TS (0.01-100 nM), Zarnestra® (also referred to herein as tipifarnib) (100 nM) or rapamycin (1 μM).

LC3-II = LC3-II protein level (autophagic flux) in SH-SY5Y cells with or without bafilomycin A1; type: cell-based, human
Text: Data are represented as mean+/−SEM with statistical significance by paired student's t-test (n=4, p<0.05).
The observed increase in LC3-positive autophagosomes could result, in principle, from either an increased flux through the autophagy pathway or decreased autophagosome degradation (Pankiv, S., et al. J Biol Chem 282, 24131-24145 (2007); Kamada, Y., et al. J Cell Biol 150, 1507-1513 (2000)). […] In order to ascertain an increase in autophagic flux, cells were co-treated with LNK-754-TS and an inhibitor of autophagosome-lysosome fusion, bafilomycin A1 (10 nM). Bafilomycin treatment alone caused a 100% increase in the amount of LC3-II, consistent with the fact that it inhibits autophagosome degradation (FIG. 8c).
as §1

C#Cc1cccc(-c2cc(=O)n(C)c3ccc([C@](O)(c4ccc(Cl)cc4)c4cncn4C)cc23)c1 [LNK-754-TS, (R)-6-[(4-chlorophenyl)-hydroxyl-(1-methyl-1-H-imidazol-5-yl)-methyl]-4-(3-ethynylphenyl)-1-methyl-2-(1H)-quinonlinone (2S,3S)-dihydroxybutanedioate]
levels of Aβ40/Aβ42 extracted from whole brain fractions (Elisa) (Aβ): no statistically significant changes | number of Aβ (6E10) immunoreactive plaques in the subiculum vs. vehicle (Aβ): lesser, but still significant, effect; also recorded: significant decrease | mRNA levels of a set of autophagy-related genes (Atg1): unaffected | Cmax ([1]; BID day 1): 1385 ng/mL | Cmax ([1]; BID day 5): 1485 ng/mL | dose required for suppression of tumor growth [2]: at least 25 mg per kg | punctate LC3 immunostaining (number of LC3-positive puncta) (LC3): distinct increase; also recorded: increased | LC3-II protein level (LC3-II; 100 nM in the presence of Bafilomycin A1 (10 nM)): increased | accumulation of LC3-I or LC3-II (LC3-II; treatment alone, without bafilomycin): did not cause accumulation
